Reference: patent publication US7834019B2, “Substituted pyrazolo[3,4-d]pyrimidinone derivatives” (Banyu Pharmaceutical Co., Ltd., priority 2006, dated 2010)
pEC50: −log10 of the molar value.

What was measured:
[1] = tested on: Human colon cancer cells (WiDr); experiment: Checkpoint escape effect in WiDr cells + gemcitabine (phosphorylated histone H3-positive cells); format: cell-based; details: gemcitabine 100 nM for 24 hours, then test compound with nocodazole for 8 hours
Description: Pharmaceutical Text 3 (Method of Determining Drug Potency in Cells (Checkpoint-Removing Effect))
Fetal bovine serum (FBS) was obtained from Morgate; DMEM was from Invitrogen; gemcitabine was from Nippon Eli Lilly; nocodazole and 4′,6-diamidino-2-phenylindole were from Sigma; rabbit anti-phosphorylated histone H3 antibody was from Upstate; and fluorescence-labeled (Alexa Fluor 488) anti-rabbit IgG antibody was from Molecular Probe.
Human colon cancer cells (WiDr) were obtained from American Type Culture Collection (ATCC).
The cells were suspended in DMEM containing 10% FBS, and the cell suspension was applied to a poly-D-lysine-coated 96-well plastic plate (bought from Becton Dickinson) in an amount of 2000 cells/100 μL/well, in which the cells were incubated overnight in 5% CO2-95% air at 37° C. […] Next, this was washed with PBS, and a solution containing 4′,6-diamidino-2-phenylindole that had been diluted with 1% BSA/PBS to have a concentration 10 μg/mL and a fluorescence-labeled (Alexa Fluor 488) anti-rabbit IgG antibody that had been diluted 250-fold was added to it in an amount 50 μL/well, and reacted in a dark place at room temperature for 60 minutes. Finally, this was washed with PBS, and its fluorescence intensity was determined to calculate the ratio of the phosphorylated histone H3-positive cells (cells that had been in a cell division cycle through removal of checkpoint). […]

[2] = tested on: Human non-small-cell lung cancer cells (NCI-H1299); experiment: Radiation (X-ray) sensitizing effect, DNA fragmentation (subG1, FACS) in NCI-H1299 cells; format: cell-based
Description: Pharmaceutical Test 5 (Method of Determining Drug Potency with Cells (Radiation (X-Ray) Sensitizing Effect))
Fetal bovine serum (FBS) was gotten from Morgate; RPMI 1640 medium and 0.25% trypsin EDTA were from Invitrogen; cycle test plus DNA reagent kit was from Becton Dickinson; and nylon net filter was from Millipore.
Human non-small-cell lung cancer cells (NCI-H1299) were gotten from ATCC.
NCI-H1299 cells were suspended in 10% FBS-added RPMI 1640 medium, and the cell suspension was applied to a 6-well Nunclondelta-processed plastic plate bought from Nunc, in an amount of 100,000 cell/2 ml/well, and incubated overnight in 5% CO2-95% air at 37° C. Using Softex's M-150WE, the cells were irradiated with 5000 R X-rays, and then further incubated in 5% CO2-95% air at 37° C. for 16 hours. A test compound was stepwise diluted with DMSO, and applied to a plate with the X-ray-processed cells sowed thereon, in an amount of 2 μL. This was incubated in 5% CO2-95% air at 37° C. for 8 hours, and then the culture was partly taken out. 0.25% trypsin was added to the cells remaining on the plate, in an amount of 600 μL, and statically kept at room temperature to prepare a single cell suspension. […] Using Becton Dickinson's FACS Calibur, the DNA amount in each cell was quantitatively determined according to a FACS process, and the ratio of the cells having caused DNA fragmentation was determined.

## C=CCn1c(=O)c2cnc(Nc3ccc(N4CCN(C)CC4)cc3)nc2n1-c1cccc(C(C)(C)O)n1 [Example 53, 2-allyl-1-[6-(1-hydroxy-1-methylethyl)pyridin-2-yl]-6-{[4-(4-methylpiperazin-1-yl)phenyl]amino}-1,2-dihydro-3H-pyrazolo[3,4-d]pyrimidin-3-one]
[1]
  pEC50: 6.68
[2]; X-ray (5000 R, 16 hours before) + compound for 8 hours
  DNA Fragmentation-Inducing Effect (H1299) (subG1, %): 54.8%
[2]; compound alone, without X-ray, 8 hours
  DNA Fragmentation-Inducing Effect (H1299) (subG1, %): 3.9%
